Laboratory results published in article PMC8635029 (Frontiers in Pharmacology, 2021).

Tests used:
Assay in all cases: In vitro SafetyScreen panel
Format in all cases: binding
Adenosine A1 = target: T1, Adenosine A1 (Homo sapiens, UniProt P30542)
T1 construct: Eurofins Discovery (contract panel) PP223
Description: (§1) In vitro off-target pharmacological activities of HSK21542 were evaluated on 86 targets using a SafetyScreen panel (Item PP223, target selectivity panel) and the corresponding methods could be found at https://www.eurofinsdiscoveryservices.com/.

Adrenergic α1A = target: T2, Adrenergic α1A (Rattus norvegicus, UniProt P43140)
T2 construct: Eurofins Discovery (contract panel) PP223
Description: as §1

Adrenergic α1B = target: T3, Adrenergic α1B (Rattus norvegicus, UniProt P15823)
T3 construct: Eurofins Discovery (contract panel) PP223
Description: as §1

Adrenergic α1D = target: T4, Adrenergic α1D (Homo sapiens, UniProt P25100)
T4 construct: Eurofins Discovery (contract panel) PP223
Description: as §1

Adrenergic α2A = target: T5, Adrenergic α2A (Homo sapiens, UniProt P08913)
T5 construct: Eurofins Discovery (contract panel) PP223
Description: as §1

Adrenergic α2B = target: T6, Adrenergic α2B (Homo sapiens, UniProt P18089)
T6 construct: Eurofins Discovery (contract panel) PP223
Description: as §1

Adrenergic β1 = target: T7, Adrenergic β1 (Homo sapiens, UniProt P08588)
T7 construct: Eurofins Discovery (contract panel) PP223
Description: as §1

Adrenergic β2 = target: T8, Adrenergic β2 (Homo sapiens, UniProt P07550)
T8 construct: Eurofins Discovery (contract panel) PP223
Description: as §1

Angiotensin AT1 = target: T9, Angiotensin AT1 (Homo sapiens, UniProt P30556)
T9 construct: Eurofins Discovery (contract panel) PP223
Description: as §1

Bradykinin B2 = target: T10, Bradykinin B2 (Homo sapiens, UniProt P30411)
T10 construct: Eurofins Discovery (contract panel) PP223
Description: as §1

Calcium Channel N-Type = target: T11, Calcium Channel N-Type (Rattus norvegicus, UniProt Q02294)
T11 construct: Eurofins Discovery (contract panel) PP223
Description: as §1

Chemokine CCR1 = target: T12, Chemokine CCR1 (Homo sapiens, UniProt P32246)
T12 construct: Eurofins Discovery (contract panel) PP223
Description: as §1

Chemokine CXCR2 (IL-8RB) = target: T13, Chemokine CXCR2 (IL-8RB) (Homo sapiens, UniProt P25025)
T13 construct: Eurofins Discovery (contract panel) PP223
Description: as §1

[1] = target: T14, Cholecystokinin CCK1 (CCKA) (Homo sapiens, UniProt P32238)
T14 construct: Eurofins Discovery (contract panel) PP223
Description: as §1

[2] = target: T15, Cholecystokinin CCK2 (CCKB) (Homo sapiens, UniProt P32239)
T15 construct: Eurofins Discovery (contract panel) PP223
Description: as §1

Dopamine D1 = target: T16, Dopamine D1 (Homo sapiens, UniProt P21728)
T16 construct: Eurofins Discovery (contract panel) Item PP223
Description: as §1

Dopamine D2L = target: T17, Dopamine D2L (Homo sapiens, UniProt P14416)
T17 construct: Eurofins Discovery (contract panel) Item PP223
Description: as §1

Endothelin ETA = target: T18, Endothelin ETA (Homo sapiens, UniProt P25101)
T18 construct: Eurofins Discovery (contract panel) Item PP223
Description: as §1

GABAB1A = target: T19, GABAB1A (Homo sapiens, UniProt Q9UBS5)
T19 construct: Eurofins Discovery (contract panel) Item PP223
Description: as §1

Glucocorticoid = target: T20, Glucocorticoid (Homo sapiens, UniProt P04150)
T20 construct: Eurofins Discovery (contract panel) Item PP223
Description: as §1

[3] = target: T21, Glutamate, Metabotropic, mGlu5 (Homo sapiens, UniProt P41594)
T21 construct: Eurofins Discovery (contract panel) Item PP223
Description: as §1

Histamine H2 = target: T22, Histamine H2 (Homo sapiens, UniProt P25021)
T22 construct: Eurofins Discovery (contract panel) Item PP223
Description: as §1

[4] = target: T23, Leukotriene, Cysteinyl CysLT1 (Homo sapiens, UniProt Q9Y271)
T23 construct: Eurofins Discovery (contract panel) Item PP223
Description: as §1

Melanocortin MC4 = target: T24, Melanocortin MC4 (Homo sapiens, UniProt P32245)
T24 construct: Eurofins Discovery (contract panel) Item PP223
Description: as §1

Muscarinic M1 = target: T25, Muscarinic M1 (Homo sapiens, UniProt P11229)
T25 construct: Eurofins Discovery (outsourced panel) PP223
Description: as §1

Muscarinic M3 = target: T26, Muscarinic M3 (Homo sapiens, UniProt P20309)
T26 construct: Eurofins Discovery (outsourced panel) PP223
Description: as §1

Muscarinic M4 = target: T27, Muscarinic M4 (Homo sapiens, UniProt P08173)
T27 construct: Eurofins Discovery (outsourced panel) PP223
Description: as §1

Neuropeptide YY1 = target: T28, Neuropeptide YY1 (Homo sapiens, UniProt P25929)
T28 construct: Eurofins Discovery (outsourced panel) PP223
Description: as §1

Opiate μ (OP3, MOP) = target: T29, Opiate μ (OP3, MOP) (Homo sapiens, UniProt P35372)
T29 construct: Eurofins Discovery (outsourced panel) PP223
Description: as §1

PPARγ = target: T30, PPARγ (Homo sapiens, UniProt P37231)
T30 construct: Eurofins Discovery (outsourced panel) PP223
Description: as §1

[5] = target: T31, Platelet Activating Factor (PAF) (Homo sapiens, UniProt P25105)
T31 construct: Eurofins Discovery (outsourced panel) PP223
Description: as §1

Potassium Channel hERG = target: T32, Potassium Channel hERG (Homo sapiens, UniProt Q12809)
T32 construct: Eurofins Discovery (outsourced panel) PP223
Description: as §1

Progesterone PR-B = target: T33, Progesterone PR-B (Homo sapiens, UniProt P06401)
T33 construct: Eurofins Discovery (outsourced panel) PP223
Description: as §1

[6] = target: T34, Serotonin (5-Hydroxytryptamine) 5-HT1A (Homo sapiens, UniProt P08908)
T34 construct: Eurofins Discovery (outsourced panel) PP223
Description: as §1

[7] = target: T35, Serotonin (5-Hydroxytryptamine) 5-HT1B (Homo sapiens, UniProt P28222)
T35 construct: Eurofins Discovery (outsourced panel) PP223
Description: as §1

[8] = target: T36, Serotonin (5-Hydroxytryptamine) 5-HT2B (Homo sapiens, UniProt P41595)
T36 construct: Eurofins Discovery (contract panel) PP223
Description: as §1

[9] = target: T37, Serotonin (5-Hydroxytryptamine) 5-HT3 (Homo sapiens, UniProt P46098)
T37 construct: Eurofins Discovery (contract panel) PP223
Description: as §1

Tachykinin NK1 = target: T38, Tachykinin NK1 (Homo sapiens, UniProt P25103)
T38 construct: Eurofins Discovery (contract panel) PP223
Description: as §1

[10] = target: T39, Transporter, Dopamine (DAT) (Homo sapiens, UniProt Q01959)
T39 construct: Eurofins Discovery (contract panel) PP223
Description: as §1

[11] = target: T40, Transporter, Norepinephrine (NET) (Homo sapiens, UniProt P23975)
T40 construct: Eurofins Discovery (contract panel) PP223
Description: as §1

Vasopressin V1A = target: T41, Vasopressin V1A (Homo sapiens, UniProt P37288)
T41 construct: Eurofins Discovery (contract panel) PP223
Description: as §1

T12 sequence (P32246 whole entry): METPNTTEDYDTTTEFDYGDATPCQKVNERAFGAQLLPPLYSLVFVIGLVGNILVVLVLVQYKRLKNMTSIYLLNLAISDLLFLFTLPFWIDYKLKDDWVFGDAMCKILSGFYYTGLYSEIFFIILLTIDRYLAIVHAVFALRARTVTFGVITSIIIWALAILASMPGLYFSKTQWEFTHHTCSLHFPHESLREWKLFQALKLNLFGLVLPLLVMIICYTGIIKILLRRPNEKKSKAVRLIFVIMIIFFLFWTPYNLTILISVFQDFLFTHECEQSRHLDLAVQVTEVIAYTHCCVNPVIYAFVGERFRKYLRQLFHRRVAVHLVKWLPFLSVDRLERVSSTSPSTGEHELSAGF
T28 sequence (P25929 whole entry): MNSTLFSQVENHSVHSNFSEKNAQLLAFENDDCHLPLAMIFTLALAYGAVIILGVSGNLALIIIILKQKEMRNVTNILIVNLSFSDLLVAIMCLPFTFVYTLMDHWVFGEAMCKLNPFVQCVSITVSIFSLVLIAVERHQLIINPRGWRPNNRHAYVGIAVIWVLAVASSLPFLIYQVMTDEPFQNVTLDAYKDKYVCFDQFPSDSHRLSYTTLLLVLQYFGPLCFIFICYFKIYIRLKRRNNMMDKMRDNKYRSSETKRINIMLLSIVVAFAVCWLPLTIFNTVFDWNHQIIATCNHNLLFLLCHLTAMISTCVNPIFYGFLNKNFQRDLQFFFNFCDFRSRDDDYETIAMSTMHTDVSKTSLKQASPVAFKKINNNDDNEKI
T8 sequence (P07550 whole entry): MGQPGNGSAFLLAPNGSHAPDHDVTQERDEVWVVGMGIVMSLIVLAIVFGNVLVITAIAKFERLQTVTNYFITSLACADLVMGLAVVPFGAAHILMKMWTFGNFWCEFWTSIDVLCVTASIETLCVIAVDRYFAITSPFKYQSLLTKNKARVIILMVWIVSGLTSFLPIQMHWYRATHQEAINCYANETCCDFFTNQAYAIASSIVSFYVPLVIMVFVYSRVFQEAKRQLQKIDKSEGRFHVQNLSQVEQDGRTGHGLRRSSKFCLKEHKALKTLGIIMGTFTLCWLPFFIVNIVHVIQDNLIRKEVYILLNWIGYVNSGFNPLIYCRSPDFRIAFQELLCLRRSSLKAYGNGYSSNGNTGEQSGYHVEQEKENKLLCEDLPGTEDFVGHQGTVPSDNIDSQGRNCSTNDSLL
T35 sequence (P28222 whole entry): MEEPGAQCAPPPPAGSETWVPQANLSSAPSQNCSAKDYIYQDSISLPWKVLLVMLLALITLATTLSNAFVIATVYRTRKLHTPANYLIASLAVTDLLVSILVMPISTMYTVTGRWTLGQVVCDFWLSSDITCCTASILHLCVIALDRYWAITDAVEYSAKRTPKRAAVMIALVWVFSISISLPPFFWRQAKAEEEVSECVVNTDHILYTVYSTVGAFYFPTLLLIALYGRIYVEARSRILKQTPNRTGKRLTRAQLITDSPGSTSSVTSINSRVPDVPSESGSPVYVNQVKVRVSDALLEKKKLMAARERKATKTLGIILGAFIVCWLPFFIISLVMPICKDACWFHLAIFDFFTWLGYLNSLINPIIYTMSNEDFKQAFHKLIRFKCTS
T26 sequence (P20309 whole entry): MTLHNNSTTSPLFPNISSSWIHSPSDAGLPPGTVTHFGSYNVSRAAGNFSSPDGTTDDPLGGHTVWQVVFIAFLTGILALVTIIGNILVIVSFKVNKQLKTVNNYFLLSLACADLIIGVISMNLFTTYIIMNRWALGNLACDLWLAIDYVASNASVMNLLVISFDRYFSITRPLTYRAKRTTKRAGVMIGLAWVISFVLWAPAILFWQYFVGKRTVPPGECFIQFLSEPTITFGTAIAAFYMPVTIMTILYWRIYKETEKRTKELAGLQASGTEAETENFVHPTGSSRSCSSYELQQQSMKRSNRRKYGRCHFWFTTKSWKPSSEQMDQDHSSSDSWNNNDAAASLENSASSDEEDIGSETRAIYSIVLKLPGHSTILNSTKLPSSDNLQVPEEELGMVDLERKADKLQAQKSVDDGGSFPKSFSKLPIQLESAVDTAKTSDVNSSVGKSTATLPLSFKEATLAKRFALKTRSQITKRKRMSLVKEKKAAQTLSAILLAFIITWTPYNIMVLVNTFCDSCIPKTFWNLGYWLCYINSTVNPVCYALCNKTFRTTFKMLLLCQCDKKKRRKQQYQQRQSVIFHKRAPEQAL
T34 sequence (P08908 whole entry): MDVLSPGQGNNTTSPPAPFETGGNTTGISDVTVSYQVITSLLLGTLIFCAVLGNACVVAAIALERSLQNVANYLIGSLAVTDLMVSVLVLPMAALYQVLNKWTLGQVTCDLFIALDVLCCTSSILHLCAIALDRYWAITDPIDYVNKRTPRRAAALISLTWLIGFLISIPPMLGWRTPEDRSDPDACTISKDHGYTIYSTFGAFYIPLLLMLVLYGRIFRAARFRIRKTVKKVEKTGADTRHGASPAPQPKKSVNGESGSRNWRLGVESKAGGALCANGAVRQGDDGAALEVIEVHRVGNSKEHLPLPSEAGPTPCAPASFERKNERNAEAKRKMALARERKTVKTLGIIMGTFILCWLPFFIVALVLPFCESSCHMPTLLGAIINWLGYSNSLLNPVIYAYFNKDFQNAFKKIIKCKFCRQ
T17 sequence (P14416 whole entry): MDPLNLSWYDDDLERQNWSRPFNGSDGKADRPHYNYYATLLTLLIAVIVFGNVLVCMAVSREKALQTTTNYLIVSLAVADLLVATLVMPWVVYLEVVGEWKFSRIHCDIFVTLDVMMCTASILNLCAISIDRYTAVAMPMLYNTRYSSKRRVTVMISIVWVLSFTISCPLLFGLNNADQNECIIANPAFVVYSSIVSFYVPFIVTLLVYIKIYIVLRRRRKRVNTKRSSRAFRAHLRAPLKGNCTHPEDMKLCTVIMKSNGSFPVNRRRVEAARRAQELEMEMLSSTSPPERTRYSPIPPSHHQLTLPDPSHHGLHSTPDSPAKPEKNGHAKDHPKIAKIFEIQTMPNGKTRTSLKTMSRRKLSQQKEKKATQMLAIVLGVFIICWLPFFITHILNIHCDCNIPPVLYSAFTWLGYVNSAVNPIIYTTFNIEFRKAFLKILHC
T10 sequence (P30411 whole entry): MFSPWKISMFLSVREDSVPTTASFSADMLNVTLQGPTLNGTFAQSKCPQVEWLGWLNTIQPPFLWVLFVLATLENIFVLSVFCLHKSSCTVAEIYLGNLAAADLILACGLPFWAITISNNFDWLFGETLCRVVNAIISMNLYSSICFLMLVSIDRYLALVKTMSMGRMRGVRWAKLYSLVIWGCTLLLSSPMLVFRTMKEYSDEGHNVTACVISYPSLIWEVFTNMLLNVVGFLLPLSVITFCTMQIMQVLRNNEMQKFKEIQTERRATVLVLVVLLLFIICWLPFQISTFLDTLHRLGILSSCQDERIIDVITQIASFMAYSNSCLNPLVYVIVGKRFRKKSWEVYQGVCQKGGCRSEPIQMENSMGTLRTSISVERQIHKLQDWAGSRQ
T30 sequence (P37231 whole entry): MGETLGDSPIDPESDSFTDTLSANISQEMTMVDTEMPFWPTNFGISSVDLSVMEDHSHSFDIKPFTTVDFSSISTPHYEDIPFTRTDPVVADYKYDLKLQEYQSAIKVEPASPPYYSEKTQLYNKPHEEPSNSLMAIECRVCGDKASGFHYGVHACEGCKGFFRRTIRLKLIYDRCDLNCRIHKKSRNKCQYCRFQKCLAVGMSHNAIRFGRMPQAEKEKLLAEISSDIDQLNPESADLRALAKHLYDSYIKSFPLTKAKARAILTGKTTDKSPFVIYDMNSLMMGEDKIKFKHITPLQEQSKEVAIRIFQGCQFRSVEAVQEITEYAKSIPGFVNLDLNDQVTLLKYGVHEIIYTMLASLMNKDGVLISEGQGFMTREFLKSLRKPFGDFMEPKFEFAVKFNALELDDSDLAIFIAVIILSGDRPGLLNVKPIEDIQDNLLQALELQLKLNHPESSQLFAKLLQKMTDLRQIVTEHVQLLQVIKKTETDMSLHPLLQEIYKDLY
T2 sequence (P43140 whole entry): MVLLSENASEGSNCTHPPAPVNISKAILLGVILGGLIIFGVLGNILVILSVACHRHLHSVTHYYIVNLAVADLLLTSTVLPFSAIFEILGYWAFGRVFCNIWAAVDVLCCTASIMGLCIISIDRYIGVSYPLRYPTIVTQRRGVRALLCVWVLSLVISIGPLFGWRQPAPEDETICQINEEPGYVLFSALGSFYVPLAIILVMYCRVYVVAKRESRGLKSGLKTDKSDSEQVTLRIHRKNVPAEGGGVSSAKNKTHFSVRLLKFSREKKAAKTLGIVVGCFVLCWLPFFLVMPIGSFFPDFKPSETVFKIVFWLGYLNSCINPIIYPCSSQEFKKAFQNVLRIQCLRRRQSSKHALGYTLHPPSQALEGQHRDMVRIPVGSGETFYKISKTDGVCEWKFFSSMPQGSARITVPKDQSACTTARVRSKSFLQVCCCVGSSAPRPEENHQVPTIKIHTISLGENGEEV
T23 sequence (Q9Y271 whole entry): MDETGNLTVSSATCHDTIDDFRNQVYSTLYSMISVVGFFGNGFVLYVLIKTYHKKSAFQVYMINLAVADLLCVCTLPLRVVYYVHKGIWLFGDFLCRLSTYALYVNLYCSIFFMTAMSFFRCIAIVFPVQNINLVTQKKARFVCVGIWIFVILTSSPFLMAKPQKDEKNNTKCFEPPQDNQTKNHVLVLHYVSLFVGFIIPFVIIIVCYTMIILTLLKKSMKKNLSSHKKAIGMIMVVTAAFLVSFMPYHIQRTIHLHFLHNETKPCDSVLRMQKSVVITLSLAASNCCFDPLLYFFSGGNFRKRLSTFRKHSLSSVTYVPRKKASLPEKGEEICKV

How did the inhibition at 10 µM (Adenosine A1) turn out when `CC(=O)N1CC2(CCN(C(=O)[C@@H](CCCCN)NC(=O)[C@@H](CC(C)C)NC(=O)[C@@H](Cc3ccccc3)NC(=O)[C@H](N)Cc3ccccc3)CC2)C1` [HSK21542, 7-(D-phenylalanyl-D-phenylalanyl-D-leucyl-D-lysyl)-2-acetyl-2,7-diazaspiro (3.5)nonane] was run?
The inhibition at 10 µM was 0%.

What about the inhibition at 10 µM (Adrenergic α1A) of the same molecule?
The inhibition at 10 µM was 12%.

And the inhibition at 10 µM (Adrenergic α1B)?
Its inhibition at 10 µM is 3%.

What about the inhibition at 10 µM (Adrenergic α1D) of the same molecule?
Its inhibition at 10 µM is -1%.

And the inhibition at 10 µM (Adrenergic α2A)?
The inhibition at 10 µM was 7%.

And the inhibition at 10 µM (Adrenergic α2B)?
Its inhibition at 10 µM is -6%.

And the inhibition at 10 µM (Adrenergic β1)?
The inhibition at 10 µM was 11%.

What about the inhibition at 10 µM (Adrenergic β2) of the same molecule?
Its inhibition at 10 µM is 3%.

What about the inhibition at 10 µM (Angiotensin AT1) of the same molecule?
Its inhibition at 10 µM is -7%.

What about the inhibition at 10 µM (Bradykinin B2) of the same molecule?
The inhibition at 10 µM was -3%.

What about the inhibition at 10 µM (Calcium Channel N-Type) of the same molecule?
Its inhibition at 10 µM is -3%.

And the inhibition at 10 µM (Chemokine CCR1)?
Its inhibition at 10 µM is -4%.

What about the inhibition at 10 µM (Chemokine CXCR2 (IL-8RB)) of the same molecule?
Its inhibition at 10 µM is 4%.

And the inhibition at 10 µM [1]?
The inhibition at 10 µM was 5%.

What about the inhibition at 10 µM [2] of the same molecule?
Its inhibition at 10 µM is -12%.

And the inhibition at 10 µM (Dopamine D1)?
The inhibition at 10 µM was 3%.

What about the inhibition at 10 µM (Dopamine D2L) of the same molecule?
Its inhibition at 10 µM is -6%.

And the inhibition at 10 µM (Endothelin ETA)?
The inhibition at 10 µM was 4%.

What about the inhibition at 10 µM (GABAB1A) of the same molecule?
Its inhibition at 10 µM is -8%.

And the inhibition at 10 µM (Glucocorticoid)?
The inhibition at 10 µM was 8%.

And the inhibition at 10 µM [3]?
Its inhibition at 10 µM is 19%.

What about the inhibition at 10 µM (Histamine H2) of the same molecule?
Its inhibition at 10 µM is 8%.

And the inhibition at 10 µM [4]?
Its inhibition at 10 µM is 8%.

What about the inhibition at 10 µM (Melanocortin MC4) of the same molecule?
The inhibition at 10 µM was 27%.

What about the inhibition at 10 µM (Muscarinic M1) of the same molecule?
The inhibition at 10 µM was 9%.

And the inhibition at 10 µM (Muscarinic M3)?
Its inhibition at 10 µM is -3%.

And the inhibition at 10 µM (Muscarinic M4)?
Its inhibition at 10 µM is 3%.

What about the inhibition at 10 µM (Neuropeptide YY1) of the same molecule?
The inhibition at 10 µM was -8%.

And the inhibition at 10 µM (Opiate μ (OP3, MOP))?
Its inhibition at 10 µM is 0%.

What about the inhibition at 10 µM (PPARγ) of the same molecule?
The inhibition at 10 µM was 3%.

What about the inhibition at 10 µM [5] of the same molecule?
Its inhibition at 10 µM is 10%.

What about the inhibition at 10 µM (Potassium Channel hERG) of the same molecule?
Its inhibition at 10 µM is 1%.

And the inhibition at 10 µM (Progesterone PR-B)?
The inhibition at 10 µM was -1%.

And the inhibition at 10 µM [6]?
The inhibition at 10 µM was 1%.

And the inhibition at 10 µM [7]?
The inhibition at 10 µM was 1%.

And the inhibition at 10 µM [8]?
Its inhibition at 10 µM is 0%.

And the inhibition at 10 µM [9]?
Its inhibition at 10 µM is 14%.

What about the inhibition at 10 µM (Tachykinin NK1) of the same molecule?
Its inhibition at 10 µM is 21%.

What about the inhibition at 10 µM [10] of the same molecule?
The inhibition at 10 µM was 2%.

What about the inhibition at 10 µM [11] of the same molecule?
The inhibition at 10 µM was 19%.

What about the inhibition at 10 µM (Vasopressin V1A) of the same molecule?
The inhibition at 10 µM was -24%.
